Patent publication US11542259B2, “Compounds for the treatment of kinase-dependent disorders” (Exelixis, Inc., priority 2018, dated 2023)

Experiments:
[1] = target: KDR (Homo sapiens (Human), UniProt P35968); experiment: KDR autophosphorylation ELISA in HUVEC cells; format: cell-based; settings: cellular, VEGF165 stimulated
Procedure, shortened: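 HUVEC, 24 h serum-free starvation; cpd 8-pt dilution, 0.3% DMSO final, 1 h; VEGF165 100 ng/mL, 5 min; cold lysis; phospho-KDR ELISA; IC50, 4PL.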

[2] = target: AXL (Homo sapiens (Human), UniProt P30530); experiment: AXL autophosphorylation ELISA in A-172 cells; format: cell-based; settings: cellular, Gas6 stimulated
Procedure, shortened: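 Serum-starved (24 h) A-172 glioblastoma cells pretreated 1 h with compounds (8-point curve, 0.3% DMSO), then stimulated 15 min with 1 μg/mL Gas6. Lysate phospho-AXL measured by sandwich ELISA against a phospho-AXL standard; IC50 from 4-parameter logistic fit between DMSO and reference-inhibitor controls.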

[3] = target: Human Mer (residues R557-E882 with H628Q and R794A) (Homo sapiens (Human), UniProt Q12866); experiment: Human Mer kinase assay (33P radiometric, KinaseProfiler); format: biochemical; settings: 10 μM ATP
Procedure: Kinase activity and compound inhibition were investigated using the ^33P-Phosphoryl transfer radiometric kinase assay, performed using the KinaseProfiler™ service of Eurofins Pharma Discovery Services UK Limited. Dose-response experiments were performed using nine compound concentrations in a 96-well microtiter plate. For each assay, all compounds were prepared to a 50× final assay concentration (50 μM) in 100% DMSO, then diluted in a half-log series, with the final top concentration at 1 μM. This working stock of the compound was added to the assay well as the first component in the reaction, followed by the remaining components as detailed in the following assay protocols below. The positive control wells (100% kinase activity) contain all components of the reaction including 2% DMSO (control for solvent effects), except the compound of interest. Blank wells contain all components of the reaction, with the reference inhibitor, staurosporine. This reference compound was used to abolish kinase activity and generated the 0% kinase activity base-line. IC50 values were calculated by nonlinear regression analysis using the sigmoidal dose-response (variable slope) curve fit on XLFit version 5.3 (ID Business Solutions).
Human Mer (residues R557-E882 with H628Q and R794A, 0.7 nM) was incubated with 8 mM MOPS pH 7.0, 0.2 mM EDTA, 30 mM NaCl, 250 μM GGMEDIYFEFMGGKKK (SEO ID NO. 44). 10 mM magnesium acetate, and 10 μM [γ-^33P-ATP]. The reaction was initiated by the addition of the Mg/ATP mix. After incubation for 40 minutes at room temperature, the reaction was stopped by the addition of phosphoric acid to a concentration of 0.5%. A reaction aliquot of 10 μL was then spotted onto a P30 filtermat and washed four times for 4 minutes in 0.425% phosphoric acid and once in methanol prior to drying and scintillation counting. Incorporated ^33P was measured using the Wallac Microbeta scintillation counter (Perkin Elmer).

Human Mer (residues R557-E882 with H628Q and R794A), sequence (Q12866 557-882, stated change not applied): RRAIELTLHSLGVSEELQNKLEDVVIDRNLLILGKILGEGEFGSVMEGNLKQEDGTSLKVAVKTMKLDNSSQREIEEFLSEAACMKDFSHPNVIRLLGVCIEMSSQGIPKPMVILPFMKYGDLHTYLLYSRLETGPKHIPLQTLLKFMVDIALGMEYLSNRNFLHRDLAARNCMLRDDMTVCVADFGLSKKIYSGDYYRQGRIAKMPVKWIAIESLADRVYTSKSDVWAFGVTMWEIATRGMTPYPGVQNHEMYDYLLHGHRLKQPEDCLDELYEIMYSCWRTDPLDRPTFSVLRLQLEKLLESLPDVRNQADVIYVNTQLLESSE
KDR, sequence (P35968 20-1356): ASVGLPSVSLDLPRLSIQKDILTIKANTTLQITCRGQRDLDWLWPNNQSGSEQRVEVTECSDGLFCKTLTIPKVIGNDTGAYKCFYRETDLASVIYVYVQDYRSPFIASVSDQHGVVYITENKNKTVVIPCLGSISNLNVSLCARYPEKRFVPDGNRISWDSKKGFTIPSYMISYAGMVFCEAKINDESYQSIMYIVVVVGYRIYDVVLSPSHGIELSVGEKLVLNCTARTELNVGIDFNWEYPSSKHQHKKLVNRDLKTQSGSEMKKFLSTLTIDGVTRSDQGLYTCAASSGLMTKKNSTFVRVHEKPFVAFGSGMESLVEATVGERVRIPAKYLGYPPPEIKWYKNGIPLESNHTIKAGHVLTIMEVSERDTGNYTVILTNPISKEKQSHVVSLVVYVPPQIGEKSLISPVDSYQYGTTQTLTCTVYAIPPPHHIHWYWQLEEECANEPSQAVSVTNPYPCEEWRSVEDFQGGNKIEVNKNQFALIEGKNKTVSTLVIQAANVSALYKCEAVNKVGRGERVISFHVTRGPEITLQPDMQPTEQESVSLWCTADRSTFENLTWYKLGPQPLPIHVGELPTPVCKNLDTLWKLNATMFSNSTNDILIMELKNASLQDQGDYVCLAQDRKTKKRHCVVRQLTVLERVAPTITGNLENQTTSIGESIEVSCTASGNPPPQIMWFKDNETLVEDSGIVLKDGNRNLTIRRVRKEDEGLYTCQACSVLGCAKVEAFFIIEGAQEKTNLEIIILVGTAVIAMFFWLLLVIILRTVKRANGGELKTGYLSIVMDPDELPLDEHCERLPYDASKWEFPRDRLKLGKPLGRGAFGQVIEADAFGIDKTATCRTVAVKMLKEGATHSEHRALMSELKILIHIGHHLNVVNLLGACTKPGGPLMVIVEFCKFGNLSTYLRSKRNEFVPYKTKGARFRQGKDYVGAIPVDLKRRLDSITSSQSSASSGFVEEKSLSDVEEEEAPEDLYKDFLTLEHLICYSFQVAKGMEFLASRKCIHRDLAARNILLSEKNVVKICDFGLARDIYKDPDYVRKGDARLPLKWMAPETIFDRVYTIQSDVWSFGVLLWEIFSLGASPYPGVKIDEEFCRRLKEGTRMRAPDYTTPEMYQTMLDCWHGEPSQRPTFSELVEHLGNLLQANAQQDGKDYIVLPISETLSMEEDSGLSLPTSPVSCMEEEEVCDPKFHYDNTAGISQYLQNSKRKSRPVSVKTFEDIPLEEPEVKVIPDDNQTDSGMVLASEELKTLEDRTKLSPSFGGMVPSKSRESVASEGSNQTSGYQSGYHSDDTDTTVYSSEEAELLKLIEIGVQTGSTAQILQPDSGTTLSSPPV
AXL, sequence (P30530 26-894): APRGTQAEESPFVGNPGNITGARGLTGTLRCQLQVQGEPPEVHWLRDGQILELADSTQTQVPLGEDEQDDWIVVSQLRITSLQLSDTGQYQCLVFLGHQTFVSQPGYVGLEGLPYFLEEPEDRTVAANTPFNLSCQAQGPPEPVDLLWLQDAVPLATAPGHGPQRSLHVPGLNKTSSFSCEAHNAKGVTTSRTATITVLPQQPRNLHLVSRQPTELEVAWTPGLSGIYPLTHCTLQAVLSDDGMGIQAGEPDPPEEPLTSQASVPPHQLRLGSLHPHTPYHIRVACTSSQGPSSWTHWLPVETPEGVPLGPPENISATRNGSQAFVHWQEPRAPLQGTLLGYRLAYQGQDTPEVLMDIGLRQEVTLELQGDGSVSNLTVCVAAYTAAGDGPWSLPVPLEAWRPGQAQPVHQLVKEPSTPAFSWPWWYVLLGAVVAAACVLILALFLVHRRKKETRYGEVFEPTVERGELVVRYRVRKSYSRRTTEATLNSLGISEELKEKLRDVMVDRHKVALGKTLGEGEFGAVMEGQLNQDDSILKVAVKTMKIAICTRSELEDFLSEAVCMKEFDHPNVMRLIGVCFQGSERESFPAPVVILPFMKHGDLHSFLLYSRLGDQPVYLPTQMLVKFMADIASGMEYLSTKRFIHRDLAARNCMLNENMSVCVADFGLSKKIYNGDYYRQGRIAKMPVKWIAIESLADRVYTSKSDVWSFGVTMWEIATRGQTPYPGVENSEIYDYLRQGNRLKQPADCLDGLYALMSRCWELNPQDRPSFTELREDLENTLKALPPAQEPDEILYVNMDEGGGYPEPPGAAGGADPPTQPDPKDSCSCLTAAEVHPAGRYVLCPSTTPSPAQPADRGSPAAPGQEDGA

SMILES	IC50 [1] [µM]	IC50 [2] [µM]	IC50 [3] [µM]
COc1cc2nccc(Oc3ccc(NC(=O)C4(C(=O)Nc5ccc(F)cc5)CC4)cc3)c2cc1-c1cccc(C#N)c1F [Compound 175, 1-N-[4-[6-(3-cyano-2-fluorophenyl)-7-methoxyquinolin-4-yl]oxyphenyl]-1-N′-(4-fluorophenyl)cyclopropane-1,1-dicarboxamide]	0.1 to 0.3	0.01 to 0.1	≤ 0.01
COc1cc2nccc(Oc3ccc(NC(=O)C4(C(=O)Nc5ccc(F)cc5)CC4)cc3)c2cc1-c1cn[nH]c1 [Compound 186, 1-N′-(4-fluorophenyl)-1-N-[4-[7-methoxy-6-(1H-pyrazol-4-yl)quinolin-4-yl]oxyphenyl]cyclopropane-1,1-dicarboxamide]	≤ 0.01	≤ 0.01	≤ 0.01
NC(=O)c1ccc2nccc(Oc3ccc(NC(=O)C4(C(=O)Nc5ccc(F)cc5)CC4)cc3)c2c1 [Compound 58, 1-N-[4-(6-carbamoylquinolin-4-yl)oxyphenyl]-1-N′-(4-fluorophenyl)cyclopropane-1,1-dicarboxamide]	0.1 to 0.3	0.01 to 0.1	0.01 to 0.1
COc1cc2nccc(Oc3ccc(NC(=O)C4(C(=O)Nc5ccc(F)cc5)CC4)cc3)c2cc1C1CC1 [Compound 187, 1-N-[4-(6-cyclopropyl-7-methoxyquinolin-4-yl)oxyphenyl]-1-N′-(4-fluorophenyl)cyclopropane-1,1-dicarboxamide]	0.01 to 0.1	0.01 to 0.1	≤ 0.01
CCNC(=O)c1cc2c(Oc3ccc(NC(=O)C4(C(=O)Nc5ccc(F)cc5)CC4)cc3)ccnc2cc1OC [Compound 9, 1-N-[4-[6-(ethylcarbamoyl)-7-methoxyquinolin-4-yl]oxyphenyl]-1-N′-(4-fluorophenyl)cyclopropane-1,1-dicarboxamide]	≤ 0.01	≤ 0.01	–
CNC(=O)c1cc2nccc(Oc3ccc(NC(=O)C4(C(=O)Nc5ccc(F)cc5)CC4)cc3)c2cc1OC [Compound 153, 1-N′-(4-fluorophenyl)-1-N-[4-[6-methoxy-7-(methylcarbamoyl)quinolin-4-yl]oxyphenyl]cyclopropane-1,1-dicarboxamide]	0.01 to 0.1	0.01 to 0.1	≤ 0.01
COc1cc2nccc(Oc3ccc(NC(=O)C4(C(=O)Nc5ccc(F)cc5)CC4)cc3)c2cc1-c1ccn[nH]1 [Compound 185, 1-N′-(4-fluorophenyl)-1-N-[4-[7-methoxy-6-(1H-pyrazol-5-yl)quinolin-4-yl]oxyphenyl]cyclopropane-1,1-dicarboxamide]	≤ 0.01	0.01 to 0.1	≤ 0.01
CNC(=O)c1cc2nccc(Oc3ccc(NC(=O)C4(C(=O)Nc5ccc(F)cc5)CC4)cc3)c2cc1C [Compound 143, 1-N′-(4-fluorophenyl)-1-N-[4-[6-methyl-7-(methylcarbamoyl)quinolin-4-yl]oxyphenyl]cyclopropane-1,1-dicarboxamide]	0.1 to 0.3	0.01 to 0.1	≤ 0.01
Cc1cc2c(Oc3ccc(NC(=O)C4(C(=O)Nc5ccc(F)cc5)CC4)cc3)ccnc2cc1C(N)=O [Compound 142, 1-N-[4-(7-carbamoyl-6-methylquinolin-4-yl)oxyphenyl]-1-N′-(4-fluorophenyl)cyclopropane-1,1-dicarboxamide]	0.01 to 0.1	0.01 to 0.1	≤ 0.01
COc1cc2nccc(Oc3ccc(NC(=O)C4(C(=O)Nc5ccc(F)cc5)CC4)cc3)c2cc1N1CC(O)C1 [Compound 199, 1-N′-(4-fluorophenyl)-1-N-[4-[6-(3-hydroxyazetidin-1-yl)-7-methoxyquinolin-4-yl]oxyphenyl]cyclopropane-1,1-dicarboxamide]	≤ 0.01	≤ 0.01	≤ 0.01
CNC(=O)c1cc2c(Oc3ccc(NC(=O)C4(C(=O)Nc5ccc(F)cc5)CC4)cc3Cl)ccnc2cc1OC [Compound 134, 1-N′-[3-chloro-4-[7-methoxy-6-(methylcarbamoyl)quinolin-4-yl]oxyphenyl]-1-N-(4-fluorophenyl)cyclopropane-1,1-dicarboxamide]	≤ 0.01	≤ 0.01	≤ 0.01
COc1cc2nccc(Oc3ccc(NC(=O)C4(C(=O)Nc5ccc(F)cc5)CC4)cc3)c2cc1S(N)(=O)=O [Compound 206, 1-N′-(4-Fluorophenyl)-1-N-[4-(7-methoxy-6-sulfamoylquinolin-4-yl)oxyphenyl]cyclopropane-1,1-dicarboxamide]	≤ 0.01	≤ 0.01	≤ 0.01
COc1cc2nccc(Oc3ccc(NC(=O)C4(C(=O)Nc5ccc(F)cc5)CC4)cc3)c2cc1N1CC(F)(F)C1 [Compound 200, 1-N-[4-[6-(3,3-difluoroazetidin-1-yl)-7-methoxyquinolin-4-yl]oxyphenyl]-1-N′-(4-fluorophenyl)cyclopropane-1,1-dicarboxamide]	0.01 to 0.1	0.01 to 0.1	≤ 0.01
COC(=O)c1cc2c(Oc3ccc(NC(=O)C4(C(=O)Nc5ccc(F)cc5)CC4)cc3)ccnc2cc1OC [Compound 5, methyl 4-[4-[[1-[(4-fluorophenyl)carbamoyl]-cyclopropanecarbonyl]amino]-phenoxy]-7-methoxyquinoline-6-carboxylate]	≤ 0.01	0.01 to 0.1	≤ 0.01
COc1cc2nccc(Oc3ccc(NC(=O)C4(C(=O)Nc5ccc(F)cc5)CC4)cc3)c2cc1-c1ccccn1 [Compound 176, 1-N′-(4-fluorophenyl)-1-N-[4-(7-methoxy-6-pyridin-2-ylquinolin-4-yl)oxyphenyl]cyclopropane-1,1-dicarboxamide]	0.01 to 0.1	0.01 to 0.1	≤ 0.01
COc1cc2nccc(Oc3ccc(NC(=O)C4(C(=O)Nc5ccc(F)cc5)CC4)cc3)c2cc1C1(O)COC1 [Compound 196, 1-N′-(4-fluorophenyl)-1-N-[4-[6-(3-hydroxyoxetan-3-yl)-7-methoxyquinolin-4-yl]oxyphenyl]cyclopropane-1,1-dicarboxamide]	0.01 to 0.1	0.01 to 0.1	≤ 0.01
COc1cc2nccc(Oc3ccc(NC(=O)C4(C(=O)Nc5ccc(F)cc5)CC4)cc3F)c2cc1C(N)=O [Compound 133, 1-N′-[4-(6-carbamoyl-7-methoxyquinolin-4-yl)oxy-3-fluorophenyl]-1-N-(4-fluorophenyl)cyclopropane-1,1-dicarboxamide]	≤ 0.01	≤ 0.01	≤ 0.01
COc1cc2nccc(Oc3ccc(NC(=O)C4(C(=O)Nc5ccc(F)cc5)CC4)cc3)c2cc1C1(O)CNC1 [Compound 197, 1-N′-(4-fluorophenyl)-1-N-[4-[6-(3-hydroxyazetidin-3-yl)-7-methoxyquinolin-4-yl]oxyphenyl]cyclopropane-1,1-dicarboxamide]	> 0.3	0.1 to 0.3	≤ 0.01
COc1cc2nccc(Oc3ccc(NC(=O)C4(C(=O)Nc5ccc(F)cc5)CC4)cc3)c2cc1C1(O)CN(C(=O)OC(C)(C)C)C1 [Compound 195, tert-butyl 3-[4-[4-[[1-[(4-fluorophenyl)carbamoyl]cyclopropanecarbonyl]amino]phenoxy]-7-methoxyquinolin-6-yl]-3-hydroxyazetidine-1-carboxylate]	0.01 to 0.1	0.1 to 0.3	≤ 0.01
COc1cc2nccc(Oc3ccc(NC(=O)C4(C(=O)Nc5ccc(F)cc5)CC4)cc3)c2cc1C(=O)NC1COC1 [Compound 13, 1-N′-(4-fluorophenyl)-1-N-[4-[7-methoxy-6-(oxetan-3-ylcarbamoyl)quinolin-4-yl]oxyphenyl]cyclopropane-1,1-dicarboxamide]	≤ 0.01	0.01 to 0.1	≤ 0.01
COc1cc2nccc(Oc3ccc(NC(=O)C4(C(=O)Nc5ccc(F)cc5)CC4)cc3)c2cc1-c1ncc[nH]1 [Compound 191, 1-N′-(4-Fluorophenyl)-1-N-[4-[6-(1H-imidazol-2-yl)-7-methoxyquinolin-4-yl]oxyphenyl]cyclopropane-1,1-dicarboxamide]	≤ 0.01	≤ 0.01	–
CONC(=O)c1cc2c(Oc3ccc(NC(=O)C4(C(=O)Nc5ccc(F)cc5)CC4)cc3)ccnc2cc1OC [Compound 17, 1-N′-(4-fluorophenyl)-1-N-[4-[7-methoxy-6-(methoxycarbamoyl)quinolin-4-yl]oxyphenyl]cyclopropane-1,1-dicarboxamide]	≤ 0.01	0.01 to 0.1	–
